Laboratory results reported in ChEMBL document CHEMBL1130892, “Novel cytokine release inhibitors. Part I: Triterpenes” (Bioorg Med Chem Lett, 1998).
pIC50: −log10 of the molar value.

Columns and labels:
[1] = Inhibitory activity against LPS-stimulated IL1-beta release by cultured human monocytes at a concentration 1000 nM; assay type: functional
[2] = biological target: T1, Caspase-1 (Homo sapiens, UniProt P29466); assay: Inhibitory activity against IL-1 beta converting enzyme was evaluated.
T1 sequence (P29466 whole entry): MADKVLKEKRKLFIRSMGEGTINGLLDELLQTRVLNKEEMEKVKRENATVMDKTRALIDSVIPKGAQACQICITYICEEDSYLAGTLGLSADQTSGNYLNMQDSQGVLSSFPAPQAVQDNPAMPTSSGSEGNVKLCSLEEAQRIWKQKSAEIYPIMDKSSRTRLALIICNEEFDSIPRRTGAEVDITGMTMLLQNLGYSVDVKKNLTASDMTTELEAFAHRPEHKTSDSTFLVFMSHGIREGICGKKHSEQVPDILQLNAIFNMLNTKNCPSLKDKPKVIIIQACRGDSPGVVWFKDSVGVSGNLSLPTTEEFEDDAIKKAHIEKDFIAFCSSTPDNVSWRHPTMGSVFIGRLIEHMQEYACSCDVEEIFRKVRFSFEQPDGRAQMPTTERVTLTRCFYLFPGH

[3] = Inhibitory activity against LPS-stimulated 1L-1beta release by cultured human monocytes; assay type: functional
[4] = test system: Rattus norvegicus; assay: Compound was tested for reduction of streptococcal cell wall(SCW) in rats at a dose of 0.67 mg/kg; assay type: functional

Row | Structure (SMILES) | pIC50 [3] | also measured
1 | COC(=O)[C@]1(C)CC[C@]2(C)CC[C@]3(C)C4=CCc5c(cc(OC)c(OC)c5C)[C@]4(C)CC[C@@]3(C)[C@@H]2C1 |  | inhibition at 1 µM [1]: 8%
2 | O=C1C=CC(=O)C=C1 [BENZOQUINONE] |  | pIC50 [2]: 5.52
3 | CC1=C(O)C(=O)C=C2C1=CC=C1[C@@]2(C)CC[C@@]2(C)[C@@H]3C[C@](C)(C(=O)O)CC[C@]3(C)CC[C@]12C [CELASTROL] | 7.40 | 
4 | COc1ccc2c(c1)c(CC(=O)O)c(C)n2C(=O)c1ccc(Cl)cc1 [INDOMETHACIN] |  | SCW reduction [4]: 70%
5 | COC(=O)[C@]1(C)CC[C@]2(C)CC[C@]3(C)C4=CC=C5C(=CC(=O)C(O)=C5C)[C@]4(C)CC[C@@]3(C)[C@@H]2C1 [PRISTIMERIN] | 7.25 | 
6 | COC(=O)[C@]1(C)CC[C@]2(C)CC[C@]3(C)C4=CCc5c(cc(OC(C)=O)c(OC(C)=O)c5C)[C@]4(C)CC[C@@]3(C)[C@@H]2C1 [PRISTIMEROL DIACETATE] | 7.10 | 
7 | COC(=O)[C@]1(C)CC[C@]2(C)CC[C@]3(C)C4=CCc5c(cc(O)c(O)c5C)[C@]4(C)CC[C@@]3(C)[C@@H]2C1 [PRISTIMEROL] | 6.59 | 
8 | CC1=C(O)C(=O)C=C2C1=CC=C1[C@@]2(C)CC[C@@]2(C)[C@@H]3C[C@@H](C)C(=O)C[C@]3(C)CC[C@]12C [TINGENONE] | 7.24 | 
